The test system of data set [1] is calcium-induced arrhythmias. As to the kind of experiment: Calcium-induced arrhythmia model (time lag to conduction block after CaCl2 infusion). Format: in vivo, mouse. The settings on record: male NMRI mice; 1 nmol/kg i.v. 3 min before CaCl2 infusion; (tarr test compound − tarr vehicle)×100/tarr vehicle. The protocol:
Peptides suitable for administration to cardiac cells can be identified in an in vivo model of calcium-induced arrhythmias according to the model of Lynch et al. (1981) J Cardiovasc. Pharmacol. 3:49-60. Mice (25-30 g) are anaesthetized with a neurolept anaesthetic combination and an i.v. cannula is inserted into the tail vein. A lead II ECG signal is recorded continuously by positioning a stainless steel ECG electrodes on the right forelimb and on the left hind limb. The ground electrode is placed on the right hind limb. The signal is amplified (×5.000-10.000) and filtered (0.1-150 Hz) via a Hugo Sachs Electronic model 689 ECG module. The analogue signal is digitized via a 12 bit data acquisition board (Data Translation model DT321) and sampled at 1000 Hz using the Notocord HEM 3.1 software for Windows NT. After a 10-minute equilibration period, the test sample of compound is injected into the tail vein. Mice pre-treated with buffer are tested as a measure of the control level in untreated animals. The injection volume is 100 μl in all experiments.
Infusion of CaCl2 (30 mg/ml, 0.1 ml/min≈100 mg/kg/min (calcium chloride-2-hydrate, Riedel-de Haën, Germany)) is started 3 min after i.v. administration of drug or vehicle. The time lag to onset of 2nd degree AV-block is determined as the time from the start of CaCl2 infusion until the first arrhythmic event occurs. An event of 2nd degree AV-block is defined as intermittent failure of the AV conduction characterised by a P-wave without the concomitant QRS complex.
Responses are expressed relative to the time until 2nd degree AV-block occurred in vehicle treated mice. The maximal effect of compounds (e.g., N- or C-terminally modified peptides of the invention, AAP, AAP10 or controls) is determined. […] Preferably, the compounds provide at least about 40% of the activity of AAP, for example at least about 50% of the activity of AAP, such as about 60% of the activity of AAP, for example at least about 70% of the activity of AAP, such as at least about 80% of the activity of AAP, for example at least about 90% of the activity of AAP, for example at least about substantially the same activity of AAP, such as about 110% of the activity of AAP, for example at least about 120% of the activity of AAP, such as at least about 130% of the activity of AAP, for example at least about 140% of the activity of AAP, such as about 150% of the activity of AAP, for example at least about 160% of the activity of AAP, such as at least about 170% of the activity of AAP, for example at least about 180% of the activity of AAP, preferably at least about 190% of the activity of AAP, more preferably at least about 200 or greater % of the activity of AAP (i.e., the compounds show time lags of approximately the same duration as induced by AAP).
The anti-arrhythmic effect of the present compounds was tested in a model of calcium-induced arrhythmias according to the model of Lynch et al., J. Cardiovasc. Pharmacol. (1981), 3: 49-60. Male NMRI mice (25-30 grams; Bomholdtgaard, L I. Skendsved, Denmark) were anesthetized with a neurolept anesthetic combination (Hynorm® (fentanyl citrate 0.315 mg/mL and fuanisone 10 mg/mL) and midazolam at 5 mg/mL. Commercial solutions of Hynorm® and midazolam were diluted 1:1 in distilled water, and one part Hynorm® was mixed with one part diluted midazolam. Anesthesia is induced by s.c. administration of this solution in a dose of 50-75 μL/10 gram mouse.
An intravenous cannula was inserted into the tail vein. The lead II ECG signal was recorded continuously by positioning of stainless steel ECG electrodes on the right forelimb and on the left hind limb. The ground electrode was placed on the right hind limb. The signal was amplified (×5.000-10.000) and filtered (0.1-150 Hz) via a Hugo Sachs Electronic model 689 ECG module. […]

The nature of data set [2]: PAMPA-BBB permeability test (brain lipid artificial membrane). Type of data set: in vitro ADME. Particulars: brain lipid 20% in dodecane; pH 7.4 buffer; 14 hr diffusion. From the text:
The compounds of the invention show desirable pharmacokinetic profiles as evidenced from data obtained when testing the permeability of the compounds across a synthetic biomimetic membrane that resembles the blood brain barrier (PAMPA-BBB) and the compounds ability to inhibit the activity of cytochrome P 450 oxidase isozyme 3A4. Normally it is desirous to avoid having drugs targeting the cardiovascular systems and other non-CNS ailments such as osteoporosis being less able to cross the blood brain barrier and thus penetrate into the central nervous system.
Permeability test: Compounds in DMSO solution are added to pH 7.4 buffer in a 96 well plate (“donor”). The buffer is placed in contact with a 96 well filter plate in which the pours have been filled with an artificial membrane (2% phosphatidyl choline in dodecane). The top wells of the filter plate are filled with aqueous buffer (“acceptor”). Compound molecules diffuse into the artificial membrane and then into the acceptor buffer. After a 14 hr diffusion experiment, the donor and acceptor wells are measured on a UV plate reader and compared to a standard. The experiment is termed “PAMPA”. Permeability-BBB: The PAMPA experiment above is repeated using brain lipid (20% in dodecane) to provide a prediction of blood-brain barrier permeation by passive diffusion.

The target of another data set is CYP 3A4 (Homo sapiens, UniProt P08684). The data set is described as follows: Cytochrome P450 oxidase (CYP) inhibition, fluorescent probe. Type of data set: in vitro ADME. The settings on record: recombinant human CYP isozyme 3A4. From the text:
Cytochrome P450 enzymes (CYPs) constitute a superfamily of heme proteins involved in the metabolism of endogenous and exogenous compounds in living organisms. In particular, a number of CYP isozymes are important in the oxidative metabolism of drug molecules. Interactions with these enzymes could lead to altered pharmacokinetic parameters, such as half life, Cmax, or AUC of other co-administered drug molecules. To reduce this kind of interaction in vitro screening of drug candidates for inhibition of drug-metabolizing CYPs has been carried out.
Cytochrome P oxidase (CYP) Inhibition: The compound solution is added to a mixture of recombinant human CYP isozymes, NADPH regenerating solution, buffer, and “probe” compounds for each isozyme. The degree of reduction in the rate of metabolism of the probe to a fluorescent metabolite is an indication of the potential CYP inhibition of the test compound. The CYP 450 isozyme tested is 3A4.

Square brackets hold non-standard residues; d marks the D form. Peptide text beside a SMILES is read from it. * marks the point of attachment. Bz = O=C(c1ccccc1)*

Chain of CYP 3A4 (P08684 whole entry): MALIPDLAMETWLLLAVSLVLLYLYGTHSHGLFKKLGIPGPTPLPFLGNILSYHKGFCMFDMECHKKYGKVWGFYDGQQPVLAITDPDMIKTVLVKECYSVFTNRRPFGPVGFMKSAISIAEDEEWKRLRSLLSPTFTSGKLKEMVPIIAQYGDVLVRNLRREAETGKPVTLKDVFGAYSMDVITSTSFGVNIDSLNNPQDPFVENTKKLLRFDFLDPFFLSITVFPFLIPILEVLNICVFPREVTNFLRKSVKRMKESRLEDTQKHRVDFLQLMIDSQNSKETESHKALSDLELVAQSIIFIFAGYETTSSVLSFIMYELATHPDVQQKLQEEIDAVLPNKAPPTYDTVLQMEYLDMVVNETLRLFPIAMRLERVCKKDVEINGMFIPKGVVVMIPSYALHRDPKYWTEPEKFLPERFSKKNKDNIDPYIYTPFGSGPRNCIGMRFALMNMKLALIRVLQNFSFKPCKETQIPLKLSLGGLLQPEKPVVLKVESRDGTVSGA

With `NC(=O)CNC(=O)[C@H](CC(N)=O)NC(=O)Cc1cc(=O)oc2cc(O)ccc12` [Compound 1, N-(7-hydroxycoumarin-4-acetyl)-Asn-Gly-NH2], the “% response (increase of time lag to onset of arrhythmias relative to vehicle)” value in data set [1] is on record as 20.9%.
Consider `NC(=O)[C@H](Cc1ccc(O)cc1)NC(=O)CNC(=O)CO` [Compound 2, N-(hydroxyacetyl)-Gly-Tyr-NH2], for which the “% response (increase of time lag to onset of arrhythmias relative to vehicle)” value in data set [1] is recorded as 48.7%.
As for `NC(=O)C[C@H](NC(=O)CS)C(=O)N[C@@H](Cc1ccc(O)cc1)C(N)=O` [Compound 7, N-(thiohydroxyacteyl)-Asn-Tyr-NH2], in data set [2], the PAMPA-BBB was 0 10^−6 cm/s. Further, the “CYP450 Inhibition at 3 μM (% Inhibition) CYP 3A4” value at CYP 3A4 is less than 15 % Inhibition.
`CC(=O)OCC(=O)N[C@@H](CC(N)=O)C(=O)N[C@@H](Cc1ccc(O)cc1)C(N)=O` [Compound 8]: the PAMPA-BBB in data set [2] is listed as 0 10^−6 cm/s. In addition, on CYP 3A4, the “CYP450 Inhibition at 3 μM (% Inhibition) CYP 3A4” value is less than 15 % Inhibition. Moreover, the “% response (increase of time lag to onset of arrhythmias relative to vehicle)” value in data set [1] is 16.5%.
Turning to `NCC(=O)N[C@@H](CC(N)=O)C(=O)NCc1ccc2ccc3cccc4ccc1c2c34` [Compound 12, H-Gly-Asn-NH(pyrenylmethyl)], the PAMPA-BBB in data set [2] is given as 0 10^−6 cm/s. Further, at CYP 3A4, the “CYP450 Inhibition at 3 μM (% Inhibition) CYP 3A4” value was less than 15 % Inhibition. Also, in data set [1], the “% response (increase of time lag to onset of arrhythmias relative to vehicle)” value is 38.0%.
`NC(=O)C[C@@H](NC(=O)Cc1cc(=O)oc2cc(O)ccc12)C(=O)NCC(=O)O` [Compound 15, N-(7-hydroxycoumarin-4-acetyl)-D-Asn-Gly-OH]: in data set [1], the “% response (increase of time lag to onset of arrhythmias relative to vehicle)” value is given as 28.5%.
As for `COCC(=O)N[C@@H](CC(N)=O)C(=O)N[C@@H](Cc1ccc(O)cc1)C(N)=O` [Compound 16, (Methoxyacetyl)-Asn-Tyr-NH2], the PAMPA-BBB in data set [2] is recorded as 0 10^−6 cm/s. Besides, the “CYP450 Inhibition at 3 μM (% Inhibition) CYP 3A4” value at CYP 3A4 was less than 15 % Inhibition.
In the case of `N[C@@H](CCCCNC(=O)c1ccc([N+](=O)[O-])cc1)C(=O)NCC(=O)O` [WO2004/048400 7, H-K(4-nitrobenzoyl)-G-OH, reference compound], the “CYP450 Inhibition at 3 μM (% Inhibition) CYP 3A4” value at CYP 3A4 was 15–25 % Inhibition.
With `CN(CC(=O)O)C(=O)[C@@H](N)CCCCNC(=O)c1ccc([N+](=O)[O-])cc1` [WO2004/048400 8, H-K(4-nitrobenzoyl)-Sar-OH, reference compound], the “CYP450 Inhibition at 3 μM (% Inhibition) CYP 3A4” value at CYP 3A4 is 15–25 % Inhibition.
Take `N[C@H](CCCCNC(=O)c1ccccc1)C(=O)NCC(=O)O` [WO2004/048400 23, H-DLys(benzoyl)-G-OH, reference compound] (H-[dK](Bz)-Gly-OH): at CYP 3A4, the “CYP450 Inhibition at 3 μM (% Inhibition) CYP 3A4” value is reported as 15–25 % Inhibition.
On to `COc1ccc(CNC(=O)C[C@H](N)C(=O)N[C@H](C)C(=O)O)cc1` [WO2004/048400 80, H-Asn(4-methoxybenzyl)-DAla-OH, reference compound], for which, on CYP 3A4, the “CYP450 Inhibition at 3 μM (% Inhibition) CYP 3A4” value was 15–25 % Inhibition.
Regarding “H-Gly-Asn-NH(4-nitrophenyl) [Compound 10]”, in data set [2], the PAMPA-BBB was 0 10^−6 cm/s. Besides, the “CYP450 Inhibition at 3 μM (% Inhibition) CYP 3A4” value at CYP 3A4 is reported as less than 15 % Inhibition. In addition, in data set [1], the “% response (increase of time lag to onset of arrhythmias relative to vehicle)” value amounted to 38.0%.

Source of the values: patent publication US7749969B2, “N- or C- terminally modified small peptides” (Zealand Pharma A/S, priority 2005, dated 2010).
